Test system: autologous targets
Assay: CTL assay (chromium release)
Type: cell-based
Conditions: two in vitro re-stimulations, IL-2 added

**Q.** For “DW2: amino acids 391-399 of the HER-2 protein, T cell epitope (PLQPEQLQV; UniProt P04626 391-399, looked up, fragment)”, which “CTL lysis of targets” value is on record?
**A.** Its value is “able to specifically lyse autologous targets in a dose dependent manner”.
